Publication PMC12051620, “Molecular basis underlying the specificity of an antagonist AA92593 for mammalian melanopsins” (The Journal of Biological Chemistry, 2025)

Biological target: T1, mouse melanopsin WT (Mus musculus, UniProt Q9QXZ9)
T1 construct: expressed in transfected cells; host or cells: COS-1
T1 sequence (Q9QXZ9 1-381 limits assumed): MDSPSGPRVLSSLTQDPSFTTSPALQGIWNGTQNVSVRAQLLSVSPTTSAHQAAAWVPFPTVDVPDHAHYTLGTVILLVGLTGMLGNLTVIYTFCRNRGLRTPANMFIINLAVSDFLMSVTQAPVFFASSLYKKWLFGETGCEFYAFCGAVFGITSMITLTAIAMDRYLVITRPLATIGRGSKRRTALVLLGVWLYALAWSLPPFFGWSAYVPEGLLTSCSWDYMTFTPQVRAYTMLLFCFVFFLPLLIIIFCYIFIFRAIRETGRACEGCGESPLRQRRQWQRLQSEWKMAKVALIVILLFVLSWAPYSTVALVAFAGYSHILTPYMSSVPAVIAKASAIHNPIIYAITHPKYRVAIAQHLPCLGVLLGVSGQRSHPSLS
Test: GsX GloSensor assay with Gsα/q11
Format: cell-based
Conditions: COS-1 cells
Source text: To quantify the antagonistic effects of AA92593 on mammalian melanopsins, we used the GsX GloSensor assay ([12], [13], [14]). This assay measures GPCR-induced increases in intracellular cAMP levels even for Gq-, Gi/o-, or G12-coupled receptors by using Gsα chimeras ([12], [13], [14]). Because melanopsin is primarily coupled with Gq-type G proteins, a Gsα mutant with 11 C-terminal sequence of Gqα (Gsα/q11) was expressed in COS-1 cells with melanopsin and a luciferase-based cAMP biosensor (see “Experimental procedures”) ([15]). This assay enables the measurement of Gq activation by melanopsin as cAMP production (an increase in luminescence). In this study, we used C-terminal–truncated melanopsin constructs to increase the expression levels with minimal compromise in functionality ([9], [16], [17], [18], [19]). […] In addition, the C-terminal region is located far from the binding site of AA92593 (see below). Hereafter, the C-terminal–truncated melanopsin constructs are named as “WT.”
In the constructs for melanopsin expression (opsin name - GenBank ID: human melanopsin - NM_033282.4, mouse melanopsin - NM_013887.2, Xenopus Opn4x - NM_001085674.1, chicken opn4-1 - NM_001397961.1, B. belcheri melanopsin - AB205400.1, and B. lanceolatum melanopsin - MF464477.1), the C-terminal amino acid residues (94, 140, 200, 214, 296, and 308 residues for human ([9]), mouse ([9]), Xenopus, chicken, belcheri ([16]), and lanceolatum melanopsins, respectively) were removed, the 1D4 tag sequence (ETSQVAPA) was added, and inserted into the EcoRI/NotI site in a mammalian expression vector pMT. Jumping spider rhodopsin-1 (GenBank ID: AB251846.1) was also added with the 1D4 tag and inserted into pMT vector. Human and mouse melanopsins, and jumping spider rhodopsin-1 in pCDNA3.1 were kindly provided from Drs. Akihisa Terakita and Mitsumasa Koyanagi (Osaka Metropolitan University). In this paper, each opsin with the C-terminal sequence modifications as described above is denoted “WT.” Bovine Gsα and its mutants Gsα/q11 and Gsα/i11 (C-terminal 11 residues are replaced with Gqα and Giα, respectively) were also inserted into the pMT vector. The GFP-tagged melanopsin constructs, in which EGFP protein fused with C-termini of melanopsins, were prepared as previously described ([9], [50]). […]
For GloSensor assay, opsins, GloSensor assay sensor (coded by pGlo-22F), and NanoBiT-tagged G proteins were transiently expressed in COS-1 cells (kindly provided from Dr David Farrens, Oregon Health and Science University) using PEI as described previously ([24], [52]). […] For GFP-fluorescence microscopy, a 35-mm cell culture dish (IWAKI) was transfected with 2 μg melanopsin-GFP plasmid and 8 μg PEI in 400 μl Opti-mem and 1.2 ml D-MEM. […]

[1] = relative peak cAMP response vs no AA92593

COc1ccc(S(=O)(=O)N2CCCCC2)cc1C [AA92593]
Hill fitting parameter rate of dose-response curve: −1.15 ± 0.18
IC50 (0.1 μM 9-cis-retinal, white light 10 s, n = 3, read-out: IC50, reduction in peak cAMP responses upon Gsα/q11 activation): 2980 ± 580 nM
Hill fitting parameter max of dose-response curve [1]: 98.86 ± 1.11
Hill fitting parameter min of dose-response curve [1]: 46.53 ± 4.15
